Laboratory results: the supplement of paper PMC10307832

Legend:
Assay in all cases: relative viability (nuclei count vs DMSO), 5 days (fraction); higher = more cells survive
[1] = compound: Nc1nc(Nc2ccc3c(c2)CC[C@@H](N2CCCC2)CC3)nn1-c1cc2c(nn1)-c1ccccc1CCC2 [Bemcentinib] + Cc1nc(NC(=O)N2CCC[C@H]2C(N)=O)sc1-c1ccnc(C(C)(C)C(F)(F)F)c1 [Alpelisib] (partner 2 µM)
Summary of the method: (§1)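 Lung cancer cell lines in 1536-well plates got either a single drug or a fixed anchor-drug dose together with five library-drug doses (not always all listed) in √10 steps, by pin tool, on the day after seeding. Nuclei were counted after 5 days, and relative viability is the treated-to-vehicle ratio of nuclei counts. Values are medians of duplicate plates.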

[2] = compound: Nc1nc(Nc2ccc3c(c2)CC[C@@H](N2CCCC2)CC3)nn1-c1cc2c(nn1)-c1ccccc1CCC2 [Bemcentinib] + COc1cccc2cc(-c3nc([C@H]4CC[C@H](C(=O)O)CC4)n4ncnc(N)c34)[nH]c12 [OSI-027] (partner 0.5 µM)
Summary of the method: as §1

[3] = compound: Nc1nc(Nc2ccc3c(c2)CC[C@@H](N2CCCC2)CC3)nn1-c1cc2c(nn1)-c1ccccc1CCC2 [Bemcentinib] + C[C@@H](Oc1cc(-c2cnn(C3CCNCC3)c2)cnc1N)c1c(Cl)ccc(F)c1Cl [Crizotinib] (partner 1 µM)
Summary of the method: as §1

[4] = compound: Nc1nc(Nc2ccc3c(c2)CC[C@@H](N2CCCC2)CC3)nn1-c1cc2c(nn1)-c1ccccc1CCC2 [Bemcentinib] + COc1cc2c(Oc3ccc(NC(=O)C4(C(=O)Nc5ccc(F)cc5)CC4)cc3F)ccnc2cc1OCCCN1CCOCC1 [Foretinib] (partner 0.25 µM)
Summary of the method: as §1

Cell Line | relative viability ([1]; first compound 0.04 µM) | relative viability ([1]; first compound 0.1265 µM) | relative viability ([1]; first compound 1.265 µM) | relative viability ([1]; first compound 4 µM) | relative viability ([2]; first compound 0.04 µM) | relative viability ([2]; first compound 0.1265 µM) | relative viability ([2]; first compound 0.4 µM) | relative viability ([2]; first compound 1.265 µM) | relative viability ([2]; first compound 4 µM) | relative viability ([3]; first compound 0.04 µM) | relative viability ([3]; first compound 0.1265 µM) | relative viability ([3]; first compound 1.265 µM) | relative viability ([3]; first compound 4 µM) | relative viability ([4]; first compound 0.04 µM) | relative viability ([4]; first compound 0.1265 µM) | relative viability ([4]; first compound 0.4 µM) | relative viability ([4]; first compound 1.265 µM) | relative viability ([4]; first compound 4 µM) | relative viability ([1]; first compound 0.4 µM) | relative viability ([3]; first compound 0.4 µM)
HOP-62 | 0.914 | 0.831 | 1.19 | 0.747 | 0.958 | 0.904 | 0.845 | 0.853 | 0.9 | 1.01 | 1.08 | 0.734 | 1.03 | 1.22 | 1.14 | 1.01 | 1.06 | 1.21 |  | 
LC-2-ad | 0.877 | 0.969 | 0.822 | 0.852 | 0.892 | 0.906 | 0.761 | 0.964 | 0.927 | 0.467 | 0.482 | 0.411 | 0.452 | 0.881 | 0.964 | 1.01 | 0.927 | 0.969 | 0.907 | 0.416
LCLC-97TM1 | 0.313 | 0.226 | 0.289 | 0.265 | 0.649 | 0.527 | 0.538 | 0.542 | 0.598 | 0.267 | 0.475 | 0.376 | 0.259 | 0.941 | 0.97 | 0.929 | 0.964 | 1.02 |  | 
LCLC-103H | 0.957 | 0.941 | 1.06 | 1.16 | 0.479 | 0.5 | 0.452 | 0.422 | 0.448 | 1.05 | 1.11 | 1.13 | 1.11 | 0.752 | 0.787 | 0.778 | 0.918 | 0.825 | 1.05 | 1.04
LK-2 | 1.1 | 1.22 | 1.15 | 1.31 | 0.171 | 0.229 | 0.206 | 0.186 | 0.19 | 0.217 | 0.186 | 0.224 | 0.234 | 1.51 |  | 1.29 | 1.35 | 1.49 | 1.27 | 0.252
LOU-NH91 | 0.631 | 0.702 | 0.717 | 0.71 | 0.697 | 0.703 | 0.721 | 0.749 | 0.775 | 0.717 | 0.726 | 0.753 | 0.756 | 0.891 | 0.895 | 0.933 | 1.02 | 0.988 | 0.7 | 0.732
LU99A | 0.453 | 0.584 | 0.542 | 0.569 | 0.283 | 0.279 | 0.28 | 0.285 | 0.275 | 0.549 | 0.629 | 0.574 | 0.532 | 0.751 | 0.763 | 0.778 | 0.816 | 0.837 | 0.591 | 0.542
LXF-289 | 1.09 | 1.05 | 1.06 | 1.05 | 0.744 | 0.837 | 0.782 | 0.801 | 0.819 | 0.88 | 0.833 | 0.791 | 0.877 | 0.959 | 1.06 | 0.976 | 0.983 | 0.994 | 1.02 | 0.817
